US6949648B2, “Condensed pyrazole derivatives, process for producing the same and use thereof” (Takeda Pharmaceutical Company Limited, priority 2000, dated 2005)
Structures can show the parent of a compound that is named as a salt.

Compound `Cc1nn(-c2ccccn2)c2ncc(C(=O)Nc3ccc(F)c(F)c3)c(O)c12` [Example 1-15, N-(3,4-Difluorophenyl)-4-hydroxy-3-methyl-1-(2-pyridinyl)-1H-pyrazolo[3,4-b]pyridine-5-carboxamide] has a melting point of over 300 °C.
Compound `Cc1nn(-c2ccccn2)c2ncc(C(=O)Nc3ccc(F)cc3)c(O)c12` [Example 1-14, N-(4-Fluorophenyl)-4-hydroxy-3-methyl-1-(2-pyridinyl)-1H-pyrazolo[3,4-b]pyridine-5-carboxamide] has a melting point of over 300 °C.
`Cc1nn(-c2ccncc2)c2[nH]c3ccccc3c(=O)c12` [Example 2-143, 3-Methyl-1-(4-pyridinyl)-1,9-dihydro-4H-pyrazolo[3,4-b]quinolin-4-one] gave a melting point of over 300 °C.
With `Cc1nn(-c2ccccn2)c2ncc(C(=O)Nc3cccc(F)c3)c(O)c12` [Example 1-13, N-(3-Fluorophenyl)-4-hydroxy-3-methyl-1-(2-pyridinyl)-1H-pyrazolo[3,4-b]pyridine-5-carboxamide] the melting point was over 300 °C.
Work on `Cc1nn(-c2ccccn2)c2ncc(C(=O)NC3CCCCC3)c(O)c12` [Example 1-8, N-Cyclohexyl-4-hydroxy-3-methyl-1-(2-pyridinyl)-1H-pyrazolo[3,4-b]pyridine-5-carboxamide] yielded a melting point of over 300 °C.
Work on `Cc1nn(-c2ccccn2)c2ncc(C(=O)Nc3ccccc3F)c(O)c12` [Example 1-12, N-(2-Fluorophenyl)-4-hydroxy-3-methyl-1-(2-pyridinyl)-1H-pyrazolo[3,4-b]pyridine-5-carboxamide] yielded a melting point of over 300 °C.

First: COc1ccc2nc3c(c(C)nn3-c3ccccn3)c(N)c2c1 [Example 2-42, 6-Methoxy-3-methyl-1-(2-pyridinyl)-1H-pyrazolo[3,4-b]quinolin-4-ylamine]
Second: COc1cccc2c(N)c3c(C)nn(-c4ccccn4)c3nc12.Cl
The melting point of the first is higher: 267 to 268 °C for the first, 248 to 251 °C for the second.

First: Cc1nn(-c2cccnc2)c2nc3ccccc3c(N)c12.Cl.Cl
Second: Cc1nn(-c2ncccn2)c2nc3ccccc3c(N)c12 (as salt: hydrochloride) [Example 1-65, 3-Methyl-1-(2-pyrimidinyl)-1H-pyrazolo[3,4-b]quinolin-4-ylamine hydrochloride]
The melting point of the first is lower: 234 to 237 °C for the first, 287 to 290 °C for the second.

First: Cc1ccc(-n2nc(C)c3c(N)c4ccccc4nc32)nc1 [Example 2-116, 3-Methyl-1-(5-methyl-2-pyridinyl)-1H-pyrazolo[3,4-b]quinolin-4-ylamine]
Second: Cc1nn(-c2ccccn2)c2nc3ccccc3c(C)c12 [Example 2-101, 3,4-Dimethyl-1-(2-pyridinyl)-1H-pyrazolo[3,4-b]quinoline]
The melting point of the first is higher: 229 to 232 °C for the first, 157 to 159 °C for the second.

First: Cc1nn(-c2ccccn2)c2[nH]c3c(F)cccc3c(=O)c12 [Example 2-85, 8-Fluoro-3-methyl-1-(2-pyridinyl)-1,9-dihydro-4H-pyrazolo[3,4-b]quinolin-4-one]
Second: Cc1nn(-c2ccccn2)c2[nH]c3cccc(Cl)c3c(=O)c12 [Example 2-69, 5-Chloro-3-methyl-1-(2-pyridinyl)-1,9-dihydro-4H-pyrazolo[3,4-b]quinolin-4-one]
The melting point of the first is higher: 241 °C for the first, 212 to 213 °C for the second.

First: Cc1cccnc1-n1nc(C)c2c(=O)c3c(C)cccc3[nH]c21 [Example 2-125, 3,5-Dimethyl-1-(3-methyl-2-pyridinyl)-1,9-dihydro-4H-pyrazolo[3,4-b]quinolin-4-one]
Second: CCOc1cccc(-n2nc(C)c3c(=O)c4c(C)cccc4[nH]c32)n1 [Example 2-122, 3,5-Dimethyl-1-(6-ethoxy-2-pyridinyl)-1,9-dihydro-4H-pyrazolo[3,4-b]quinolin-4-one]
The melting point of the first is lower: 195 to 197 °C for the first, 213 to 215 °C for the second.

First: Cc1nn(-c2ccccn2)c2nc3ccccc3c(CC(C)C)c12 [Example 2-105, 4-Isobutyl-3-methyl-1-(2-pyridinyl)-1H-pyrazolo[3,4-b]quinoline]
Second: CCCN(C)c1c2ccccc2nc2c1c(C)nn2-c1ccccn1 [Example 2-9, N-Methyl-N-[3-methyl-1-(2-pyridinyl)-1H-pyrazolo[3,4-b]quinolin-4-yl]-N-propylamine]
The melting point of the first is lower: 87 to 88 °C for the first, 110 to 112 °C for the second.

First: Cc1nn(-c2cccc(Cl)n2)c2nc3ccccc3c(Cl)c12 [Example 2-109, 4-Chloro-1-(6-chloro-2-pyridinyl)-3-methyl-1H-pyrazolo[3,4-b]quinoline]
Second: Cc1nn(-c2ccccn2)c2nc3cc(Cl)ccc3c(Cl)c12 [Example 2-73, 4,7-Dichloro-3-methyl-1-(2-pyridinyl)-1H-pyrazolo[3,4-b]quinoline]
The melting point of the first is lower: 191 to 193 °C for the first, 203 to 204 °C for the second.

First: COc1cccc(-n2nc(C)c3c(Cl)c4cccc(C)c4nc32)n1 [Example 2-126, 4-Chloro-3,8-dimethyl-1-(6-methoxy-2-pyridinyl)-1H-pyrazolo[3,4-b]quinoline]
Second: Cc1nn(-c2ccccn2)c2nc3c(F)cccc3c(Cl)c12 [Example 2-84, 4-Chloro-8-fluoro-3-methyl-1-(2-pyridinyl)-1H-pyrazolo[3,4-b]quinoline]
The melting point of the first is lower: 148 to 151 °C for the first, 191 °C for the second.

First: Cc1nn(-c2ccccn2)c2nc3ccc([N+](=O)[O-])cc3c(Cl)c12 [Example 2-53, 4-Chloro-3-methyl-6-nitro-1-(2-pyridinyl)-1H-pyrazolo[3,4-b]quinoline]
Second: Cc1nn(-c2ccccn2)c2nc3cccc(F)c3c(Cl)c12 [Example 2-78, 4-Chloro-5-fluoro-3-methyl-1-(2-pyridinyl)-1H-pyrazolo[3,4-b]quinoline]
The melting point of the first is higher: 282 °C for the first, 160 to 161 °C for the second.

First: COC(=O)Cc1nn(-c2ccccn2)c2[nH]c3ccccc3c(=O)c12 [Example 2-176, Methyl 2-[4-oxo-1-(2-pyridinyl)-4,9-dihydro-1H-pyrazolo[3,4-b]quinolin-3-yl]acetate]
Second: CCOC(=O)c1nn(-c2ccccn2)c2[nH]c3ccccc3c(=O)c12 [Example 2-180, Ethyl 4-oxo-1-(2-pyridinyl)-4,9-dihydro-1H-pyrazolo[3,4-b]quinoline-3-carboxylate]
The melting point of the first is higher: 240 to 241 °C for the first, 183 to 186 °C for the second.

Compared with `Cc1nn(Cc2ccncc2)c2[nH]c3ccccc3c(=O)c12` [Example 2-192, 3-Methyl-1-(4-pyridinylmethyl)-1,9-dihydro-4H-pyrazolo[3,4-b]quinolin-4-one], `Cc1nn(-c2nccs2)c2[nH]c3ccccc3c(=O)c12` [Example 2-151, 3-Methyl-1-(1,3-thiazol-2-yl)-1,9-dihydro-4H-pyrazolo[3,4-b]quinolin-4-one] is lower in melting point: 277 to 280 °C for the first, 226 to 227 °C for the second.

First: COc1cc2[nH]c3c(c(C)nn3-c3ccccn3)c(=O)c2cc1OC [Example 2-48, 6,7-Dimethoxy-3-methyl-1-(2-pyridinyl)-1,9-dihydro-4H-pyrazolo[3,4-b]quinolin-4-one]
Second: Cc1nn(-c2ccccn2)c2[nH]c3ccc(N)cc3c(=O)c12 [Example 2-55, 6-Amino-3-methyl-1-(2-pyridinyl)-1,9-dihydro-4H-pyrazolo[3,4-b]quinolin-4-one]
The melting point of the first is lower: 238 to 239 °C for the first, 260 to 262 °C for the second.

Compared with `Cc1nn(Cc2ccccn2)c2nc3ccccc3c(Cl)c12` [Example 2-186, 4-Chloro-3-methyl-1-(2-pyridinylmethyl)-1H-pyrazolo[3,4-b]quinoline], `Cc1nn(-c2ncccn2)c2nc3ccccc3c(Cl)c12` [Example 2-144, 4-Chloro-3-methyl-1-(2-pyrimidinyl)-1H-pyrazolo[3,4-b]quinoline] is higher in melting point: 113 to 115 °C for the first, 257 to 260 °C for the second.

First: Cc1nn(-c2ccncc2)c2nc3ccccc3c(Cl)c12 [Example 2-140, 4-Chloro-3-methyl-1-(4-pyridinyl)-1H-pyrazolo[3,4-b]quinoline]
Second: COC(=O)Cc1nn(-c2ccccn2)c2nc3ccccc3c(Cl)c12 [Example 2-175, Methyl 2-[4-chloro-1-(2-pyridinyl)-1H-pyrazolo[3,4-b]quinolin-3-yl]acetate]
The melting point of the first is higher: 165 to 168 °C for the first, 152 to 153 °C for the second.

Compared with `COC(=O)c1ccc2[nH]c3c(c(C)nn3-c3ccccn3)c(=O)c2c1` [Example 2-64, Methyl 3-methyl-4-oxo-1-(2-pyridinyl)-4,9-dihydro-1H-pyrazolo[3,4-b]quinoline-6-carboxylate], `Cc1nn(-c2ccccn2)c2[nH]c3cc(N)ccc3c(=O)c12` [Example 2-59, 7-Amino-3-methyl-1-(2-pyridinyl)-1,9-dihydro-4H-pyrazolo[3,4-b]quinolin-4-one] is higher in melting point: 265 to 266 °C for the first, 284 to 286 °C for the second.

First: CCc1nn(-c2ccccn2)c2nc3ccccc3c(N)c12.Cl
Second: Cc1c(O)nc2c(c(C)nn2-c2ccccn2)c1C [Example 1-24, 3,4,5-Trimethyl-1-(2-pyridinyl)-1H-pyrazolo[3,4-b]pyridin-6-ol]
The melting point of the first is higher: 249 to 252 °C for the first, 226 to 228 °C for the second.

First: Cc1nn(-c2ccccn2)c2[nH]c3ccsc3c(=O)c12 [Example 2-156, 3-Methyl-1-(2-pyridinyl)-1,8-dihydro-4H-pyrazolo[3,4-b]thieno[2,3-e]pyridin-4-one]
Second: Cc1nn(-c2ccccn2)c2[nH]c3ccc(F)c(F)c3c(=O)c12 [Example 2-89, 5,6-Difluoro-3-methyl-1-(2-pyridinyl)-1,9-dihydro-4H-pyrazolo[3,4-b]quinolin-4-one]
The melting point of the first is lower: 228 to 229 °C for the first, 300 to 303 °C for the second.

Compared with `CCOC(=O)c1cnc2c(cnn2-c2ccccn2)c1O` [Example 1-6, Ethyl 4-hydroxy-1-(2-pyridinyl)-1H-pyrazolo[3,4-b]pyridine-5-carboxylate], `Cc1nn(-c2ccccn2)c2ncc(C(=O)N(C)c3ccccc3)c(OCc3ccccc3)c12` [Example 1-17, 4-(Benzyloxy)-N,3-dimethyl-N-phenyl-1-(2-pyridinyl)-1H-pyrazolo[3,4-b]pyridine-5-carboxamide] is lower in melting point: 195 to 197 °C for the first, 92 to 93 °C for the second.

Compared with `Cc1nn(-c2ccccn2)c2nc(O)c3c(c12)CCCCC3` [Example 1-30, 1-Methyl-3-(2-pyridinyl)-3,6,7,8,9,10-hexahydrocyclohepta[d]pyrazolo[3,4-b]pyridin-5-ol], `Cc1nn(-c2ccccn2)c2nc3cc(F)c(F)cc3c(OC(C)C)c12` [Example 2-95, 6,7-Difluoro-4-isopropoxy-3-methyl-1-(2-pyridinyl)-1H-pyrazolo[3,4-b]quinoline] is lower in melting point: 243 to 244 °C for the first, 159 to 160 °C for the second.
